Experiments:
Format in all cases: cell-based
[1] = system: SARS-CoV-2 (D614G strain); settings: read-out: EC50, replication of SARS-CoV-2
SARS-CoV-2 D614G strain = system: SARS-CoV-2 D614G strain
[2] = system: European D614G strain of SARS-CoV-2 (BavPat1/2020)

**Q.** With `O=C(Nc1ccc([N+](=O)[O-])cc1Cl)c1cc(Cl)ccc1O` [niclosamide ethanolamine] as the compound, how does the EC50 [1] read?
**A.** The EC50 was 0.1 µM.

**Q.** And the EC50 (SARS-CoV-2 D614G strain)?
**A.** The EC50 was 0.06 µM.

**Q.** And the “reduction of intracellular viral RNA level versus non-treated control” value [2]?
**A.** Its value is 3 fold.

**Q.** What about the EC50 ([2]; read-out: EC50, apical infectious titer (TCID50)) of the same compound?
**A.** The EC50 was 0.96 µM.

— patent US20230190685A1, “FORMULATION” (UNION Therapeutics A/S, priority 2020, published 2023)
